In US10286056B2, “Adjuvant nanoemulsions with crystallisation inhibitors” (GLAXOSMITHKLINE BIOLOGICALS S.A., priority 2011, dated 2019):

Assay: log P (partition coefficient in 1-octanol and water)
Format: physicochemical
Conditions: 1-octanol/water, pH 7.4
Description: Emulsions of the invention are useful for formulating lipophilic pharmacological agents (LPAs) for in vivo use. Such LPAs include, but are not limited to, vitamins (e.g. vitamins A, D, E and K and their salts/esters, such as α-tocopherol succinate), carotenoids (e.g. β-carotene), fatty acids (e.g. arachidonic acid, ecosapentaenoic acid docosahexaenoic acid), pyrimidines (e.g. 5-hydroxy-4,6-dimethyl-2-(6-phenylhexyl)aminopyrimidine), ansamitocins, angiotensin II receptor antagonists (e.g. candesartan cilexetil), and immunopotentiators (e.g. muramyl dipeptides).
For example, to deliver a 25 μg dose in a typical oil-in-water emulsion would require the agonist to have a squalene solubility of 10 mg/ml, which is about 2.5× higher than can be achieved.

## Cc1ccc2c(c1)nc(N)c1ncc(CCc3ccc(OCCC(C)C)cc3C)cc12 [compound ‘A’]
  logP: 7.5
